Tested on: Energy system protein genes
Assay: DNA chip mRNA expression in yeast, energy system protein genes (Table 4)
Type: cell-based, Saccharomyces cerevisiae S288C
Procedure, shortened: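 Whole-genome yeast DNA chip hybridization (65° C., >12 h) of Cy-labeled cDNA from S288C cells exposed 2 h at 25° C. to a sub-lethal toxicant dose in YPD; value is intensity relative to chemical-free control.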

Compound: COc1cc(CNC(=O)CCCCC=CC(C)C)ccc1O [(12), 8-methyl-N-vanillyl-6-nonenamide]
- The level of expressed mRNA in the presence of chemical substance/The level of expressed mRNA in the absence of chemical substance (yeast gene YJR048W): 0.8
- The level of expressed mRNA in the presence of chemical substance/The level of expressed mRNA in the absence of chemical substance (yeast gene YJR121W, cells incubated two hours with the chemical substance): 0.8
- The level of expressed mRNA in the presence of chemical substance/The level of expressed mRNA in the absence of chemical substance (yeast gene YJR155W): 1.0
- The level of expressed mRNA in the presence of chemical substance/The level of expressed mRNA in the absence of chemical substance (yeast gene YKL016C, cells incubated two hours with the chemical substance): 1.0
- The level of expressed mRNA in the presence of chemical substance/The level of expressed mRNA in the absence of chemical substance (yeast gene YKL060C, cells incubated two hours with the chemical substance): 1.3
- The level of expressed mRNA in the presence of chemical substance/The level of expressed mRNA in the absence of chemical substance (yeast gene YKL141W, cells incubated two hours with the chemical substance): 0.8
- The level of expressed mRNA in the presence of chemical substance/The level of expressed mRNA in the absence of chemical substance (yeast gene YKL148C, cells incubated two hours with the chemical substance): 0.8
- The level of expressed mRNA in the presence of chemical substance/The level of expressed mRNA in the absence of chemical substance (yeast gene YKR009C, cells incubated two hours with the chemical substance): 1.0
- The level of expressed mRNA in the presence of chemical substance/The level of expressed mRNA in the absence of chemical substance (yeast gene YKR058W, cells incubated two hours with the chemical substance, 25° C., YPD medium): 0.9
- The level of expressed mRNA in the presence of chemical substance/The level of expressed mRNA in the absence of chemical substance (yeast gene YKR097W): 1.8
- The level of expressed mRNA in the presence of chemical substance/The level of expressed mRNA in the absence of chemical substance (yeast gene YLL041C, cells incubated two hours with the chemical substance): 0.8
- The level of expressed mRNA in the presence of chemical substance/The level of expressed mRNA in the absence of chemical substance (yeast gene YLR038C, cells incubated two hours with the chemical substance): 0.6
- The level of expressed mRNA in the presence of chemical substance/The level of expressed mRNA in the absence of chemical substance (yeast gene YLR044C, cells incubated two hours with the chemical substance): 1.4
- The level of expressed mRNA in the presence of chemical substance/The level of expressed mRNA in the absence of chemical substance (yeast gene YLR134W, cells incubated two hours with the chemical substance): 1.2
- The level of expressed mRNA in the presence of chemical substance/The level of expressed mRNA in the absence of chemical substance (yeast gene YLR258W, cells incubated two hours with the chemical substance): 0.9
- The level of expressed mRNA in the presence of chemical substance/The level of expressed mRNA in the absence of chemical substance (yeast gene YLR284C, cells incubated two hours with the chemical substance): 0.6
- The level of expressed mRNA in the presence of chemical substance/The level of expressed mRNA in the absence of chemical substance (yeast gene YLR295C, cells incubated two hours with the chemical substance, 25° C., YPD medium): 0.5
- The level of expressed mRNA in the presence of chemical substance/The level of expressed mRNA in the absence of chemical substance (yeast gene YLR304C, cells incubated two hours with the chemical substance): 1.0
- The level of expressed mRNA in the presence of chemical substance/The level of expressed mRNA in the absence of chemical substance (yeast gene YLR345W): 1.6
- The level of expressed mRNA in the presence of chemical substance/The level of expressed mRNA in the absence of chemical substance (yeast gene YLR354C, cells incubated two hours with the chemical substance): 1.2
- The level of expressed mRNA in the presence of chemical substance/The level of expressed mRNA in the absence of chemical substance (yeast gene YLR377C, cells incubated two hours with the chemical substance): 0.6
- The level of expressed mRNA in the presence of chemical substance/The level of expressed mRNA in the absence of chemical substance (yeast gene YLR395C, cells incubated two hours with the chemical substance): 0.6
- The level of expressed mRNA in the presence of chemical substance/The level of expressed mRNA in the absence of chemical substance (yeast gene YML054C): 1.8
- The level of expressed mRNA in the presence of chemical substance/The level of expressed mRNA in the absence of chemical substance (yeast gene YML087C): 0.8
- The level of expressed mRNA in the presence of chemical substance/The level of expressed mRNA in the absence of chemical substance (yeast gene YML120C, cells incubated two hours with the chemical substance): 0.9
- The level of expressed mRNA in the presence of chemical substance/The level of expressed mRNA in the absence of chemical substance (yeast gene YML129C, cells incubated two hours with the chemical substance): 0.8
- The level of expressed mRNA in the presence of chemical substance/The level of expressed mRNA in the absence of chemical substance (yeast gene YMR073C, cells incubated two hours with the chemical substance): 0.8
- The level of expressed mRNA in the presence of chemical substance/The level of expressed mRNA in the absence of chemical substance (yeast gene YMR118C): 0.8
- The level of expressed mRNA in the presence of chemical substance/The level of expressed mRNA in the absence of chemical substance (yeast gene YMR205C, cells incubated two hours with the chemical substance): 1.1
- The level of expressed mRNA in the presence of chemical substance/The level of expressed mRNA in the absence of chemical substance (yeast gene YMR261C, cells incubated two hours with the chemical substance): 0.9
- The level of expressed mRNA in the presence of chemical substance/The level of expressed mRNA in the absence of chemical substance (yeast gene YMR267W, cells incubated two hours with the chemical substance, 25° C., YPD medium): 0.8
- The level of expressed mRNA in the presence of chemical substance/The level of expressed mRNA in the absence of chemical substance (yeast gene YMR323W, cells incubated two hours with the chemical substance): 1.2
- The level of expressed mRNA in the presence of chemical substance/The level of expressed mRNA in the absence of chemical substance (yeast gene YNL071W): 1.3
- The level of expressed mRNA in the presence of chemical substance/The level of expressed mRNA in the absence of chemical substance (yeast gene YNL202W, cells incubated two hours with the chemical substance): 0.9
- The level of expressed mRNA in the presence of chemical substance/The level of expressed mRNA in the absence of chemical substance (yeast gene YNL241C): 2.0
- The level of expressed mRNA in the presence of chemical substance/The level of expressed mRNA in the absence of chemical substance (yeast gene YNL331C): 0.9
- The level of expressed mRNA in the presence of chemical substance/The level of expressed mRNA in the absence of chemical substance (yeast gene YOL086C, cells incubated two hours with the chemical substance): 1.3
- The level of expressed mRNA in the presence of chemical substance/The level of expressed mRNA in the absence of chemical substance (yeast gene YOL165C): 0.8
- The level of expressed mRNA in the presence of chemical substance/The level of expressed mRNA in the absence of chemical substance (yeast gene YOR142W, cells incubated two hours with the chemical substance): 0.8
- The level of expressed mRNA in the presence of chemical substance/The level of expressed mRNA in the absence of chemical substance (yeast gene YOR178C, cells incubated two hours with the chemical substance): 1.7
- The level of expressed mRNA in the presence of chemical substance/The level of expressed mRNA in the absence of chemical substance (yeast gene YOR388C, cells incubated two hours with the chemical substance): 0.7
- The level of expressed mRNA in the presence of chemical substance/The level of expressed mRNA in the absence of chemical substance (yeast gene YPL031C, cells incubated two hours with the chemical substance): 0.8
- The level of expressed mRNA in the presence of chemical substance/The level of expressed mRNA in the absence of chemical substance (yeast gene YPL061W, cells incubated two hours with the chemical substance): 1.0
- The level of expressed mRNA in the presence of chemical substance/The level of expressed mRNA in the absence of chemical substance (yeast gene YPL088W): 3.6
- The level of expressed mRNA in the presence of chemical substance/The level of expressed mRNA in the absence of chemical substance (yeast gene YPL171C): 1.4
- The level of expressed mRNA in the presence of chemical substance/The level of expressed mRNA in the absence of chemical substance (yeast gene YPL240C): 0.8
- The level of expressed mRNA in the presence of chemical substance/The level of expressed mRNA in the absence of chemical substance (yeast gene YPL262W, cells incubated two hours with the chemical substance): 1.1
- The level of expressed mRNA in the presence of chemical substance/The level of expressed mRNA in the absence of chemical substance (yeast gene YPL275W, cells incubated two hours with the chemical substance): 0.6
- The level of expressed mRNA in the presence of chemical substance/The level of expressed mRNA in the absence of chemical substance (yeast gene YPL276W, cells incubated two hours with the chemical substance): 0.6
- The level of expressed mRNA in the presence of chemical substance/The level of expressed mRNA in the absence of chemical substance (yeast gene YPR048W, cells incubated two hours with the chemical substance): 0.8
- The level of expressed mRNA in the presence of chemical substance/The level of expressed mRNA in the absence of chemical substance (yeast gene YPR184W, cells incubated two hours with the chemical substance): 1.4

Reference: patent US8192962B2, “Processes for detecting toxic substances” (Daikin Industries, Ltd., priority 2001, dated 2012)
